# Test results published in US9149038B2, “4-amino-6-(heterocyclic)picolinates and 6-amino-2-(heterocyclic)pyrimidine-4-carboxylates and their use as herbicides” (Dow AgroSciences LLC, priority 2013, dated 2015).
# Like-named read-outs stand apart in the source and are kept apart here.
# Test system: Wheat and Barley and weed species
# Experiment: Post-Emergent Test III: postemergent herbicidal activity in wheat and barley, visual rating after 21 d and probit GR20/GR50/GR80/GR90 (Tables 9-13)
# Assay type: in vivo
# Details: for pest or weed control at 17.5 g/ha / pest or weed control at 35 g/ha / pest or weed control at 70 g/ha: post-emergence, 504 h
# Summary of the method: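 Greenhouse plants (~18/17 °C, 14 h photoperiod) at second–third true leaf stage sprayed at 187 L/ha with a high rate and ½× to 1/16× serial dilutions. Visual injury 0–100% versus solvent-blank controls scored at 21 d; GR20, GR50, GR80 and GR90 derived by probit analysis across rates.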
compound,measurement,setting,value
Nc1c(F)c(-c2ccc(Cl)c3c2OC(F)(F)O3)nc(C(=O)O)c1Cl [Compound 82],Visual Growth Reduction (%) 21 Days After Application CIRAR,"CIRAR Canada thistle (Cirsium arvense), 17.5 g ai/ha",B (85-94)
same,Visual Growth Reduction (%) 21 Days After Application CIRAR,"CIRAR Canada thistle (Cirsium arvense), 35 g ai/ha",B (85-94)
same,Visual Growth Reduction (%) 21 Days After Application CIRAR,"CIRAR Canada thistle (Cirsium arvense), 70 g ai/ha",B (85-94)
same,GR50 CIRAR,"CIRAR Canada thistle (Cirsium arvense), growth reduction of 50%, probit analysis",1 g ai/ha
same,GR80 CIRAR,"CIRAR Canada thistle (Cirsium arvense), growth reduction of 80%, probit analysis",10 g ai/ha
same,GR90 CIRAR,"CIRAR Canada thistle (Cirsium arvense), growth reduction of 90%, probit analysis",34 g ai/ha
same,Visual Growth Reduction (%) 21 Days After Application GALAP,"GALAP cleavers (Galium aparine), 17.5 g ai/ha",D (60-74)
same,Visual Growth Reduction (%) 21 Days After Application GALAP,"GALAP cleavers (Galium aparine), 35 g ai/ha",B (85-94)
same,Visual Growth Reduction (%) 21 Days After Application GALAP,"GALAP cleavers (Galium aparine), 70 g ai/ha",B (85-94)
same,GR50 GALAP,"GALAP cleavers (Galium aparine), growth reduction of 50%, probit analysis",10 g ai/ha
same,GR80 GALAP,"GALAP cleavers (Galium aparine), growth reduction of 80%, probit analysis",33 g ai/ha
same,GR90 GALAP,"GALAP cleavers (Galium aparine), growth reduction of 90%, probit analysis",64 g ai/ha
same,GR20 HORVS,"HORVS barley, spring (crop), growth reduction of 20%, probit analysis",7 g ai/ha
same,pest or weed control at 17.5 g/ha,"Hordeum vulgare, HORVS barley, spring (crop), 17.5 g ai/ha, read-out: Visual Growth Reduction (%) 21 Days After Application HORVS",30 to 44%
same,pest or weed control at 35 g/ha,"Hordeum vulgare, HORVS barley, spring (crop), 35 g ai/ha, read-out: Visual Growth Reduction (%) 21 Days After Application HORVS",60 to 74%
same,pest or weed control at 70 g/ha,"Hordeum vulgare, HORVS barley, spring (crop), 70 g ai/ha, read-out: Visual Growth Reduction (%) 21 Days After Application HORVS",75 to 84%
same,Visual Growth Reduction (%) 21 Days After Application KCHSC,"KCHSC kochia (Kochia scoparia), 17.5 g ai/ha",D (60-74)
same,Visual Growth Reduction (%) 21 Days After Application KCHSC,"KCHSC kochia (Kochia scoparia), 35 g ai/ha",C (75-84)
same,Visual Growth Reduction (%) 21 Days After Application KCHSC,"KCHSC kochia (Kochia scoparia), 70 g ai/ha",C (75-84)
same,GR50 KCHSC,"KCHSC kochia (Kochia scoparia), growth reduction of 50%, probit analysis",2 g ai/ha
same,GR80 KCHSC,"KCHSC kochia (Kochia scoparia), growth reduction of 80%, probit analysis",83 g ai/ha
same,GR90 KCHSC,"KCHSC kochia (Kochia scoparia), growth reduction of 90%, probit analysis",>140 g ai/ha
same,Visual Growth Reduction (%) 21 Days After Application LAMPU,"LAMPU purple deadnettle (Lamium purpureum), 17.5 g ai/ha",G (0-29)
same,Visual Growth Reduction (%) 21 Days After Application LAMPU,"LAMPU purple deadnettle (Lamium purpureum), 35 g ai/ha",G (0-29)
same,Visual Growth Reduction (%) 21 Days After Application LAMPU,"LAMPU purple deadnettle (Lamium purpureum), 70 g ai/ha",F (30-44)
same,GR50 LAMPU,"LAMPU purple deadnettle (Lamium purpureum), growth reduction of 50%, probit analysis",89 g ai/ha
same,GR80 LAMPU,"LAMPU purple deadnettle (Lamium purpureum), growth reduction of 80%, probit analysis",131 g ai/ha
same,GR90 LAMPU,"LAMPU purple deadnettle (Lamium purpureum), growth reduction of 90%, probit analysis",>140 g ai/ha
same,Visual Growth Reduction (%) 21 Days After Application MATCH,"MATCH wild chamomile (Matricaria recutita L.), 17.5 g ai/ha",C (75-84)
same,Visual Growth Reduction (%) 21 Days After Application MATCH,"MATCH wild chamomile (Matricaria recutita L.), 35 g ai/ha",C (75-84)
same,Visual Growth Reduction (%) 21 Days After Application MATCH,"MATCH wild chamomile (Matricaria recutita L.), 70 g ai/ha",B (85-94)
same,GR50 MATCH,"MATCH wild chamomile (Matricaria recutita L.), growth reduction of 50%, probit analysis",18 g ai/ha
same,GR80 MATCH,"MATCH wild chamomile (Matricaria recutita L.), growth reduction of 80%, probit analysis",35 g ai/ha
same,GR90 MATCH,"MATCH wild chamomile (Matricaria recutita L.), growth reduction of 90%, probit analysis",49 g ai/ha
same,Visual Growth Reduction (%) 21 Days After Application PAPRH,"PAPRH common poppy (Papaver rhoeas), 17.5 g ai/ha",G (0-29)
same,Visual Growth Reduction (%) 21 Days After Application PAPRH,"PAPRH common poppy (Papaver rhoeas), 35 g ai/ha",G (0-29)
same,Visual Growth Reduction (%) 21 Days After Application PAPRH,"PAPRH common poppy (Papaver rhoeas), 70 g ai/ha",F (30-44)
same,GR50 PAPRH,"PAPRH common poppy (Papaver rhoeas), growth reduction of 50%, probit analysis",113 g ai/ha
same,GR80 PAPRH,"PAPRH common poppy (Papaver rhoeas), growth reduction of 80%, probit analysis",>140 g ai/ha
same,GR90 PAPRH,"PAPRH common poppy (Papaver rhoeas), growth reduction of 90%, probit analysis",>140 g ai/ha
same,Visual Growth Reduction (%) 21 Days After Application SASKR,"SASKR Russian thistle (Salsola iberica), 17.5 g ai/ha",B (85-94)
same,Visual Growth Reduction (%) 21 Days After Application SASKR,"SASKR Russian thistle (Salsola iberica), 35 g ai/ha",B (85-94)
same,Visual Growth Reduction (%) 21 Days After Application SASKR,"SASKR Russian thistle (Salsola iberica), 70 g ai/ha",B (85-94)
same,GR50 SASKR,"SASKR Russian thistle (Salsola iberica), growth reduction of 50%, probit analysis",1 g ai/ha
same,GR80 SASKR,"SASKR Russian thistle (Salsola iberica), growth reduction of 80%, probit analysis",10 g ai/ha
same,GR90 SASKR,"SASKR Russian thistle (Salsola iberica), growth reduction of 90%, probit analysis",32 g ai/ha
same,Visual Growth Reduction (%) 21 Days After Application SINAR,"SINAR wild mustard (Sinapis arvensis), 17.5 g ai/ha",A (95-100)
same,Visual Growth Reduction (%) 21 Days After Application SINAR,"SINAR wild mustard (Sinapis arvensis), 35 g ai/ha",A (95-100)
same,Visual Growth Reduction (%) 21 Days After Application SINAR,"SINAR wild mustard (Sinapis arvensis), 70 g ai/ha",A (95-100)
same,GR50 SINAR,"SINAR wild mustard (Sinapis arvensis), growth reduction of 50%, probit analysis",0.02 g ai/ha
same,GR80 SINAR,"SINAR wild mustard (Sinapis arvensis), growth reduction of 80%, probit analysis",0.5 g ai/ha
same,GR90 SINAR,"SINAR wild mustard (Sinapis arvensis), growth reduction of 90%, probit analysis",2 g ai/ha
same,GR20 TRZAS,"TRZAS wheat, spring (crop), growth reduction of 20%, probit analysis",4 g ai/ha
same,pest or weed control at 17.5 g/ha,"Triticum aestivum, TRZAS wheat, spring (crop), 17.5 g ai/ha, read-out: Visual Growth Reduction (%) 21 Days After Application TRZAS",60 to 74%
same,pest or weed control at 35 g/ha,"Triticum aestivum, TRZAS wheat, spring (crop), 35 g ai/ha, read-out: Visual Growth Reduction (%) 21 Days After Application TRZAS",60 to 74%
same,pest or weed control at 70 g/ha,"Triticum aestivum, TRZAS wheat, spring (crop), 70 g ai/ha, read-out: Visual Growth Reduction (%) 21 Days After Application TRZAS",75 to 84%
same,Visual Growth Reduction (%) 21 Days After Application VERPE,"VERPE bird's-eye speedwell (veronica persica), 17.5 g ai/ha",G (0-29)
same,Visual Growth Reduction (%) 21 Days After Application VERPE,"VERPE bird's-eye speedwell (veronica persica), 35 g ai/ha",G (0-29)
same,Visual Growth Reduction (%) 21 Days After Application VERPE,"VERPE bird's-eye speedwell (veronica persica), 70 g ai/ha",G (0-29)
same,GR50 VERPE,"VERPE bird's-eye speedwell (veronica persica), growth reduction of 50%, probit analysis",>140 g ai/ha
same,GR80 VERPE,"VERPE bird's-eye speedwell (veronica persica), growth reduction of 80%, probit analysis",>140 g ai/ha
same,GR90 VERPE,"VERPE bird's-eye speedwell (veronica persica), growth reduction of 90%, probit analysis",>140 g ai/ha
same,Visual Growth Reduction (%) 21 Days After Application VIOTR,"VIOTR wild pansy (Viola tricolor), 17.5 g ai/ha",E (45-59)
same,Visual Growth Reduction (%) 21 Days After Application VIOTR,"VIOTR wild pansy (Viola tricolor), 35 g ai/ha",D (60-74)
same,Visual Growth Reduction (%) 21 Days After Application VIOTR,"VIOTR wild pansy (Viola tricolor), 70 g ai/ha",D (60-74)
same,GR50 VIOTR,"VIOTR wild pansy (Viola tricolor), growth reduction of 50%, probit analysis",31 g ai/ha
same,GR80 VIOTR,"VIOTR wild pansy (Viola tricolor), growth reduction of 80%, probit analysis",62 g ai/ha
same,GR90 VIOTR,"VIOTR wild pansy (Viola tricolor), growth reduction of 90%, probit analysis",90 g ai/ha
